Laboratory results from PubChem BioAssay (NCI).
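Five concentrations, 48 hours, 96-well plates. TGI is the concentration that stops growth completely.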

How the values were obtained:
Assay in all cases: growth of human tumour cells (NCI), 48 h
A549 NSCLC = test system: A549 NSCLC
HCT-15 colon = test system: HCT-15 colon
HS 578T breast = test system: HS 578T breast
K-562 leukemia = test system: K-562 leukemia
NCI/ADR-RES ovarian = test system: NCI/ADR-RES ovarian
OVCAR-3 ovarian = test system: OVCAR-3 ovarian
OVCAR-4 ovarian = test system: OVCAR-4 ovarian
OVCAR-5 ovarian = test system: OVCAR-5 ovarian
RPMI-8226 leukemia = test system: RPMI-8226 leukemia
SK-MEL-28 melanoma = test system: SK-MEL-28 melanoma
SK-MEL-5 melanoma = test system: SK-MEL-5 melanoma
U251 CNS = test system: U251 CNS
A498 renal = test system: A498 renal

Structure (SMILES) | TGI (A549 NSCLC) [µM] | TGI (HCT-15 colon) [µM] | TGI (HS 578T breast) [µM] | TGI (K-562 leukemia) [µM] | TGI (NCI/ADR-RES ovarian) [µM] | TGI (OVCAR-3 ovarian) [µM] | TGI (OVCAR-4 ovarian) [µM] | TGI (OVCAR-5 ovarian) [µM] | TGI (RPMI-8226 leukemia) [µM] | TGI (SK-MEL-28 melanoma) [µM] | TGI (SK-MEL-5 melanoma) [µM] | TGI (U251 CNS) [µM] | TGI (A498 renal) [µM]
NC(CCC(=O)O)C(=O)N1CCN(c2nc(N3CCCC3)c3nc(Cl)c(NCc4ccccc4)nc3n2)CC1 (centres undefined) | 26.1 | 31 | 60.2 | 35.7 | 46.2 | 22.9 | 29.1 | 33.5 | 34.3 | 27.7 | 20.9 | 30.2 | 
O=c1c2cc(S(=O)(=O)O)ccc2nc(COc2ccc(Oc3ccc(Cl)cc3Cl)cc2)n1-c1ccc(Cl)cc1Oc1c(Cl)cccc1Cl | 72.1 | 56.6 | 76.3 | > 100 | 77.4 | 61.1 | > 100 | 60.6 | 64.7 |  | 32.1 | 40.5 | 67.3
CC1=CC(=O)N(n2c(Cc3ccccc3)n[nH]c2=O)C1=O | > 100 | > 100 | > 100 | > 100 | > 100 | > 100 | > 100 | > 100 | > 100 |  | > 100 | > 100 | > 100
c1csc(-c2cc(-c3cccs3)c(-c3ccsc3)s2)c1 | > 100 | > 100 | > 100 | > 100 | > 100 |  | > 100 |  | > 100 | > 100 | > 100 | > 100 | > 100
Cc1ccc(-c2c3nc(c(-c4ccc(C)cc4)c4ccc([nH]4)c(-c4ccc(OCC5COC(C)(C)O5)cc4)c4nc(c(-c5ccc(C)cc5)c5ccc2[nH]5)C=C4)C=C3)cc1 (centres undefined) | > 31.6 | > 31.6 | > 100 |  | > 31.6 | > 31.6 | > 31.6 | > 31.6 | > 100 | > 31.6 | > 31.6 | > 31.6 | 
COc1ccc(C2C3=C(Nc4ncnn42)c2ccccc2OC3c2ccccc2)cc1 (centres undefined) | > 100 | > 100 | > 100 | > 100 | > 100 | > 100 |  | > 100 |  |  | 62.7 | > 100 | 6.36
Cc1ccccc1N=Nc1ccc(N/N=C2/CCCNC2=O)c(C)c1 | > 100 | > 100 | > 100 | > 100 | > 100 |  | > 100 | > 100 | > 100 | > 100 | > 100 | > 100 | > 100
COc1ccccc1N1CCN(CCCN2/C(=C(\O)c3ccccc3)C(=O)c3c(C)cc(C)nc3S2(=O)=O)CC1 | > 100 | > 100 | > 100 | > 100 | > 100 | > 100 | > 100 | > 100 |  | > 100 | > 100 | > 100 | > 100
Cc1ccc(N=Nc2c(C)c(C#N)c(=S)n(C3OC(CO)C(O)C(O)C3O)c2C)cc1 (centres undefined) | > 100 | > 100 | > 100 | > 100 | > 100 | 74.4 | > 100 | > 100 | > 100 | 44.7 | 35 | 52.6 | 
